These results are taken from US10131653B2, “Heterocyclic compound” (TAKEDA PHARMACEUTICAL COMPANY LIMITED, priority 2015, dated 2018).

As usually defined, the inhibition is the relative decrease from the control value, in per cent.

Like-named read-outs stand apart in the source and are kept apart here.

The target in test [1] is T1, human OX2 receptor (Homo sapiens, UniProt O43614).
T1 construct: expressed in transfected cells; host or cells: CHO cells
T1 sequence (O43614 1-444): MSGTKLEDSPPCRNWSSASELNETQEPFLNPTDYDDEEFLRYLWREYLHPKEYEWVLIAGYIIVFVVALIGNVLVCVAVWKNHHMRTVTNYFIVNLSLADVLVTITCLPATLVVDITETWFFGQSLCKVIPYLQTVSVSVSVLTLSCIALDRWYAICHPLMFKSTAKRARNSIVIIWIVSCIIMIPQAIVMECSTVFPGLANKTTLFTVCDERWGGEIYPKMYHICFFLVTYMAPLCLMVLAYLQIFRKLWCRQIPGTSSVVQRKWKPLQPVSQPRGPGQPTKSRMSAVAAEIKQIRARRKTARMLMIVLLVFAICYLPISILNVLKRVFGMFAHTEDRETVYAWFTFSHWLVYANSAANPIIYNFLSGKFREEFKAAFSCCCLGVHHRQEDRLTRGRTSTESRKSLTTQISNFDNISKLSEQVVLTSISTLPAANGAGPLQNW
As to the kind of experiment: Measurement of orexin receptor antagonistic activity (calcium fluorescence, FLIPRtetra). The format is cell-based. To be noted: CHO, read-out: Human Orexin2 receptor inhibition (at 10 μM). Here is the method:
(§1) Measurement of Orexin Receptor Antagonistic Activity
(§2) CHO cells forcibly expressing human OX1 receptor or human OX2 receptor were seeded in each well of 384 well black transparent bottom plate (BD Falcon) at 7,500 cells/well, and cultured for one day in a 5% CO2 incubator at 37° C. […] The plate was stood for 30 min in a 5% CO2 incubator at 37° C., and further stood at room temperature for 30 min. A test compound prepared by diluting with assay buffer B (HBSS, 20 mM HEPES, 0.1% BSA) was added at 10 μL/well, and then OX-A (OX1 receptor, final concentration; 1 nM) or OX-A (OX2 receptor, final concentration; 0.3 nM) was added at 10 μL/well, and the fluorescence value was measured by FLIPRtetra (Molecular Devices) every one sec for 2 min.

In test [2] the target is T2, human OX1 receptor (Homo sapiens, UniProt O43613).
T2 construct: expressed in transfected cells; host or cells: CHO cells
T2 sequence (O43613 1-425): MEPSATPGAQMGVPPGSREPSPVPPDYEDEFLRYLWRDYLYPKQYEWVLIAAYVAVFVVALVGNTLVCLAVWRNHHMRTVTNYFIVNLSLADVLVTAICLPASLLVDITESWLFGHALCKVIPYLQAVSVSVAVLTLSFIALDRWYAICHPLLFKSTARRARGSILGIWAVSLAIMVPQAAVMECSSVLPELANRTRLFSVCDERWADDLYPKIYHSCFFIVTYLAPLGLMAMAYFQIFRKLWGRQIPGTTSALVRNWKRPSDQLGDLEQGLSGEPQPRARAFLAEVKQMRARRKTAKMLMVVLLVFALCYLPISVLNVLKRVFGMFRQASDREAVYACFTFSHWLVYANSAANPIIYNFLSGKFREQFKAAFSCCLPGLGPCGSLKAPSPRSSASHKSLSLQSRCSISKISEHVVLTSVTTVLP
The description is as above. The format is cell-based. The following applies: CHO, read-out: Human Orexin1 receptor inhibition (at 10 μM). As for the experimental part:
as §1, §2

Setting [3] is: 10 μM test compound, CHO cells expressing human OX2 receptor, OX-A 0.3 nM.
Setting [4] is: 10 μM test compound, CHO cells expressing human OX1 receptor, OX-A 1 nM.

For the molecule `C[C@H]1CN(C(=O)c2ccccc2-n2nccn2)CCN(c2cc(C(F)F)nc(C3CC3)n2)O1` [Example 95, ((7S)-2-(2-cyclopropyl-6-(difluoromethyl)pyrimidin-4-yl)-7-methyl-1,2,5-oxadiazepan-5-yl) (2-(2H-1,2,3-triazol-2-yl)phenyl)methanone], the inhibition at 10 µM in test [1] (setting [3]) is 97%; in test [2] (setting [4]) it was 100%.

`Cc1cc(N2CCN(C(=O)c3cc(F)c(F)cc3-c3ncccn3)CCO2)nc(C)n1` [Example 228, (4,5-difluoro-2-(pyrimidin-2-yl)phenyl)(2-(2,6-dimethylpyrimidin-4-yl)-1,2,5-oxadiazepan-5-yl)methanone]: the inhibition at 10 µM in test [1] (setting [3]) was 99%; in test [2] (setting [4]), 36%.

As for `Cc1cc(N2CCN(C(=O)c3ccccc3-c3csc(C)n3)CCO2)nc(C)n1` [Example 19, (2-(2,6-dimethylpyrimidin-4-yl)-1,2,5-oxadiazepan-5-yl) (2-(2-methyl-1,3-thiazol-4-yl)phenyl)methanone], the inhibition at 10 µM came to 100% in test [1] (setting [3]) and 36% in test [2] (setting [4]).

In the case of `Cc1cc(N2CCN(C(=O)c3cc(Cl)ccc3-c3ncc(F)cn3)[C@H](C)CO2)nc(C)n1` [Example 221, (5-chloro-2-(5-fluoropyrimidin-2-yl)phenyl)((6R)-2-(2,6-dimethylpyrimidin-4-yl)-6-methyl-1,2,5-oxadiazepan-5-yl)methanone], the figures for the inhibition at 10 µM in test [1] (setting [3]) and in test [2] (setting [4]) were 102% and 51%, respectively.

Regarding `COc1cc(N2CCN(C(=O)c3ccccc3-c3nccs3)CCO2)ccn1` [Example 37, (2-(2-methoxypyridin-4-yl)-1,2,5-oxadiazepan-5-yl)(2-(1,3-thiazol-2-yl)phenyl)methanone], the inhibition at 10 µM in test [1] (setting [3]) amounted to 85%; in test [2] (setting [4]) it was 19%.

As to `Cc1ccc(-n2nccn2)c(C(=O)N2[C@H](C)CON(c3cc(C)nc(C)n3)C[C@@H]2C)c1` [Example 176, ((4S,6R)-2-(2,6-dimethylpyrimidin-4-yl)-4,6-dimethyl-1,2,5-oxadiazepan-5-yl)(5-methyl-2-(2H-1,2,3-triazol-2-yl)phenyl)methanone], the inhibition at 10 µM in test [1] (setting [3]) amounted to 101%; in test [2] (setting [4]), 103%.

Take `COC(=O)c1ccccc1C(=O)N1CCN(c2cc(C)nc(C)n2)O[C@@H](C)C1` [Example 233, methyl 2-(((7S)-2-(2,6-dimethylpyrimidin-4-yl)-7-methyl-1,2,5-oxadiazepan-5-yl)carbonyl)benzoate]: the inhibition at 10 µM in test [1] (setting [3]) amounted to 87%; in test [2] (setting [4]), 17%.

Turning to `Cc1cc(N2CCN(C(=O)c3c(F)cccc3-n3nccn3)C[C@H](C)O2)nc(C)n1` [Example 210, ((7S)-2-(2,6-dimethylpyrimidin-4-yl)-7-methyl-1,2,5-oxadiazepan-5-yl)(2-fluoro-6-(2H-1,2,3-triazol-2-yl)phenyl)methanone], the results for the inhibition at 10 µM in test [1] (setting [3]) and in test [2] (setting [4]) were 97% and 51%, respectively.

As for `COc1cccc(N2CCN(C(=O)c3cc(C)ccc3-n3nccn3)[C@H](C)CO2)c1` [Example 120, ((6R)-2-(3-methoxyphenyl)-6-methyl-1,2,5-oxadiazepan-5-yl) (5-methyl-2-(2H-1,2,3-triazol-2-yl)phenyl)methanone], the inhibition at 10 µM was determined as 100% in test [1] (setting [3]) and 83% in test [2] (setting [4]).

Turning to `CC[C@@H]1CON(c2cc(C)nc(C)n2)CCN1C(=O)c1ccccc1-c1nccs1` [Example 169, ((6R)-2-(2,6-dimethylpyrimidin-4-yl)-6-ethyl-1,2,5-oxadiazepan-5-yl)(2-(1,3-thiazol-2-yl)phenyl)methanone], the inhibition at 10 µM amounted to 99% in test [1] (setting [3]) and 100% in test [2] (setting [4]).

Take `Cc1ccc(-n2nccn2)c(C(=O)N2CCON(c3cccc(C)n3)CC2)c1` [Example 33, (2-(6-methylpyridin-2-yl)-1,2,5-oxadiazepan-5-yl)(5-methyl-2-(2H-1,2,3-triazol-2-yl)phenyl)methanone]: the inhibition at 10 µM was 99% in test [1] (setting [3]) and 44% in test [2] (setting [4]).

Take `Cc1cc(N2CCN(C(=O)c3cc(Cl)ccc3-n3nccn3)C[C@H](C)O2)nc(C(F)(F)F)n1` [Example 104, (5-chloro-2-(2H-1,2,3-triazol-2-yl)phenyl)((7S)-7-methyl-2-(6-methyl-2-(trifluoromethyl)pyrimidin-4-yl)-1,2,5-oxadiazepan-5-yl)methanone]: the inhibition at 10 µM in test [1] (setting [3]) worked out at 96%; in test [2] (setting [4]), 104%.

Consider `Cc1ccc(-n2nccn2)c(C(=O)N2CCN(c3ncccc3C)OC[C@H]2C)c1` [Example 145, ((6R)-6-methyl-2-(3-methylpyridin-2-yl)-1,2,5-oxadiazepan-5-yl) (5-methyl-2-(2H-1,2,3-triazol-2-yl)phenyl)methanone], for which the inhibition at 10 µM in test [1] was found to be 82%; in test [2], 25%.

Consider `Cc1ccc(-n2nccn2)c(C(=O)N2CCON(c3nc4ccc(Cl)cc4o3)CC2)c1` [Example 39, (2-(6-chloro-1,3-benzoxazol-2-yl)-1,2,5-oxadiazepan-5-yl)(5-methyl-2-(2H-1,2,3-triazol-2-yl)phenyl)methanone], for which the inhibition at 10 µM in test [1] (setting [3]) was 98%; in test [2] (setting [4]), 100%.

`CCOc1ccccc1C(=O)N1CCON(c2nc(C)cc(C)n2)CC1` [Example 61, (2-(4,6-dimethylpyrimidin-2-yl)-1,2,5-oxadiazepan-5-yl) (2-ethoxyphenyl)methanone]: the inhibition at 10 µM in test [1] (setting [3]) was 94%; in test [2] (setting [4]), 22%.

As for `Cc1cc(N2CCN(C(=O)c3cc(F)ccc3-c3ncccn3)CCO2)nc(C)n1` [Example 27, (2-(2,6-dimethyl-pyrimidin-4-yl)-1,2,5-oxadiazepan-5-yl) (5-fluoro-2-(pyrimidin-2-yl)phenyl) methanone], the results for the inhibition at 10 µM in test [1] (setting [3]) and in test [2] (setting [4]) were 102% and 45%, respectively.

In the case of `Cc1cc(C)nc(N2CCN(C(=O)c3cccc(C#N)c3)CCO2)n1` [Example 49, 3-((2-(4,6-dimethylpyrimidin-2-yl)-1,2,5-oxadiazepan-5-yl)carbonyl) benzonitrile], the inhibition at 10 µM in test [1] (setting [3]) is 14%; in test [2] (setting [4]), 9%.

Regarding `COc1cc2c(cc1C(=O)N1CCON(c3nc(C)cc(C)n3)CC1)CCC2` [Example 77, (2-(4,6-dimethylpyrimidin-2-yl)-1,2,5-oxadiazepan-5-yl) (6-methoxy-2,3-dihydro-1H-inden-5-yl)methanone], the inhibition at 10 µM in test [1] was found to be 69%; in test [2], 12%.

On to `Cc1cc(C)nc(N2CCN(C(=O)c3cccc4ccn(C)c34)CCO2)n1` [Example 71, (2-(4,6-dimethylpyrimidin-2-yl)-1,2,5-oxadiazepan-5-yl) (1-methyl-1H-indol-7-yl) methanone], for which the results for the inhibition at 10 µM in test [1] and in test [2] were 99% and 53%, respectively.

Take `Cc1nc(N2CCN(C(=O)c3ccccc3-c3nc(C)no3)C[C@H](C)O2)cc(C(F)(F)F)n1` [Example 111, ((7S)-7-methyl-2-(2-methyl-6-(trifluoromethyl)pyrimidin-4-yl)-1,2,5-oxadiazepan-5-yl)(2-(3-methyl-1,2,4-oxadiazol-5-yl)phenyl)methanone]: the inhibition at 10 µM in test [1] (setting [3]) was determined as 100%; in test [2] (setting [4]), 9%.

As for `Cc1nc(N2CCN(C(=O)c3cc(F)c(F)cc3-c3ncccn3)C[C@H](C)O2)cc(C(F)(F)F)n1` [Example 227, (4,5-difluoro-2-(pyrimidin-2-yl)phenyl)((7S)-7-methyl-2-(2-methyl-6-(trifluoromethyl)pyrimidin-4-yl)-1,2,5-oxadiazepan-5-yl)methanone], the inhibition at 10 µM worked out at 97% in test [1] (setting [3]) and 78% in test [2] (setting [4]).

Turning to `Cc1cc(C)nc(N2CCN(C(=O)c3cc(C#N)ccc3C)CCO2)n1` [Example 83, 3-((2-(4,6-dimethylpyrimidin-2-yl)-1,2,5-oxadiazepan-5-yl)carbonyl)-4-methylbenzonitrile], the inhibition at 10 µM was determined as 24% in test [1] and 7% in test [2].
